Test [1] concerns the target cynomolgus monkey STING protein (Macaca fascicularis, UniProt A0A2R3XZA6). Put plainly: Luciferase reporter assay, cynomolgus monkey STING overexpressed in HEK293T cells. Type of test: cell-based. As to the method:
5×10^5 clonally selected HEK293T-hSTING-Luciferase cells were seeded in 384-well plates in growth medium and stimulated with novel compounds. After 20 hr of stimulation supernatant were removed and secretary reporter gene activity were measured using the Quanti-Luc detection system (Invivogen) on a Spectramax i3X luminometer.
In the tables below, EC50 value ranges for exemplary compounds are given.
Selected compounds were further tested against cynomolgus monkey STING protein overexpressed in HEK293T cells.
Background: Reporter assays use an easily measured gene product as a stand-in for the process of interest.

Another test deals with hSTING(R232) (Homo sapiens, UniProt Q86WV6, H232R). Put plainly: Luciferase reporter assay in HEK293T-hSTING-Luciferase cells, R232 (wild type) human STING. The test is classed as cell-based. As to conditions: 20 hr stimulation. In a few lines:
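After 20 hr compound stimulation of 5×10^5 cells, secreted luciferase in the supernatant was measured by luminescence; values are fold-induction over baseline and EC50. The line is a clonal HEK293T stably carrying a STING plasmid (pUNO-1) and a luciferase reporter under five tandem ISREs fused to an ISG54 promoter.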

Where [2] appears, read: cynomolgus monkey STING overexpressed in HEK293T cells, read-out: Cynomolgus monkey STING activity (EC50 range).
The mark [3] stands for this setting: read-out: R232 human activity (EC50 range).

Each structure is given as a SMILES string. Where a name gives a salt, the structure may show the parent alone. Read-outs that look alike come from different tables or passages of the source.

A word on the EC50: it is the midpoint of the concentration-response curve.

Sequence of hSTING(R232) (Q86WV6 whole entry H232R, the tested form may be a part): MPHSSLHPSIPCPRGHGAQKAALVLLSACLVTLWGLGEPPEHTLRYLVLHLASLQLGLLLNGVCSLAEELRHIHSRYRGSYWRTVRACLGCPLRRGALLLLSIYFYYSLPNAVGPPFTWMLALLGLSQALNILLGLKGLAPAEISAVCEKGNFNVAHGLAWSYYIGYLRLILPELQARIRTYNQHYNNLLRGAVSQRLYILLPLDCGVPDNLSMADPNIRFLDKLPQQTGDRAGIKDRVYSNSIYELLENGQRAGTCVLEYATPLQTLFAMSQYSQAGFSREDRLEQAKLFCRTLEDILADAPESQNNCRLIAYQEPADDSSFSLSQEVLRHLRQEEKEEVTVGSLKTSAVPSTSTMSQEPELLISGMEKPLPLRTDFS
Sequence of cynomolgus monkey STING protein (A0A2R3XZA6 entry or part of it): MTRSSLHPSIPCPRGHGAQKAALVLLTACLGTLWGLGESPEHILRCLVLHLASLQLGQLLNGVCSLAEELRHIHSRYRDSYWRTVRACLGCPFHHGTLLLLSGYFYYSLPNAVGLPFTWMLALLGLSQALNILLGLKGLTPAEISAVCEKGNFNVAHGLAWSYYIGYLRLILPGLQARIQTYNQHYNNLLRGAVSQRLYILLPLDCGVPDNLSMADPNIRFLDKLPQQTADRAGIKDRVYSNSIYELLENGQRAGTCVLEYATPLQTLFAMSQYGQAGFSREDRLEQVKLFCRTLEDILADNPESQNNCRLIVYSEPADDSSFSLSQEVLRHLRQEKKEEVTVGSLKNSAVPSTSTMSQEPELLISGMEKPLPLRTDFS

For `COc1cc(F)cc(F)c1CN1C(=O)N(C)[C@@H](C)c2ccc(C(=O)NCc3c(F)cc(F)cc3F)cc21` [Example 259, (S)-1-(2,4-difluoro-6-methoxybenzyl)-3,4-dimethyl-2-oxo-N-(2,4,6-trifluorobenzyl)-1,2,3,4-tetrahydroquinazoline-7-carboxamide], the EC50 (in test [1] (setting [2]); on hSTING(R232) (setting [3])) was less than 1000 nM each time.

Take `C[C@H]1c2ccc(C(=O)NCc3c(F)cc(F)cc3F)cc2N(Cc2c(O)cc(F)cc2F)C(=O)N1C` [Example 260, (S)-1-(2,4-difluoro-6-hydroxybenzyl)-3,4-dimethyl-2-oxo-N-(2,4,6-trifluorobenzyl)-1,2,3,4-tetrahydroquinazoline-7-carboxamide]: the EC50 (in test [1] (setting [2]); at hSTING(R232) (setting [3])) was less than 1000 nM each time.

In the case of `C[C@H]1c2ccc(C(=O)NCc3c(F)cc(F)cc3F)cc2N(Cc2cc(OCCO)ccc2F)C(=O)N1C` [Example 263, (S)-1-(2-fluoro-5-(2-hydroxyethoxy)benzyl)-3,4-dimethyl-2-oxo-N-(2,4,6-trifluorobenzyl)-1,2,3,4-tetrahydroquinazoline-7-carboxamide], the EC50 in test [1] (setting [2]) is 1000 to 10000 nM; on hSTING(R232) (setting [3]), less than 1000 nM.

Consider `COc1cc(F)c(CN2C(=O)N(C)[C@@H](C)c3ccc(C(=O)NCc4c(F)cc(F)cc4F)cc32)cc1OC` [Example 265, (S)-1-(2-fluoro-4,5-dimethoxybenzyl)-3,4-dimethyl-2-oxo-N-(2,4,6-trifluorobenzyl)-1,2,3,4-tetrahydroquinazoline-7-carboxamide], for which the EC50 (in test [1] (setting [2]); on hSTING(R232) (setting [3])) was less than 1000 nM throughout.

Take `C[C@H]1c2ccc(C(=O)NCc3c(F)cc(F)cc3F)cc2N(Cc2c(F)ccc(CO)c2F)C(=O)N1C` [Example 269, (S)-1-(2,6-difluoro-3-(hydroxymethyl)benzyl)-3,4-dimethyl-2-oxo-N-(2,4,6-trifluorobenzyl)-1,2,3,4-tetrahydroquinazoline-7-carboxamide]: the EC50 (in test [1] (setting [2]); at hSTING(R232) (setting [3])) was less than 1000 nM in each case.

As to `COc1cc(F)c(F)c(CN2C(=O)N(C)[C@@H](C)c3ccc(C(=O)NCc4c(F)cc(F)cc4F)cc32)c1` [Example 270, (S)-1-(2,3-difluoro-5-methoxybenzyl)-3,4-dimethyl-2-oxo-N-(2,4,6-trifluorobenzyl)-1,2,3,4-tetrahydroquinazoline-7-carboxamide], the EC50 (in test [1] (setting [2]); on hSTING(R232) (setting [3])) was less than 1000 nM each time.

For the molecule `C[C@H]1c2ccc(C(=O)NCc3c(F)cc(F)cc3F)cc2N(Cc2cc(OCCCO)ccc2F)C(=O)N1C` [Example 271, (S)-1-(2-fluoro-5-(3-hydroxypropoxy)benzyl)-3,4-dimethyl-2-oxo-N-(2,4,6-trifluorobenzyl)-1,2,3,4-tetrahydroquinazoline-7-carboxamide], the EC50 is 1000 to 10000 nM in test [1] (setting [2]) and less than 1000 nM on hSTING(R232) (setting [3]).

As for `C[C@H]1c2ccc(C(=O)NCc3c(F)cc(F)cc3F)cc2N(Cc2cc(N)ccc2F)C(=O)N1C` [Example 273, (S)-1-(5-amino-2-fluorobenzyl)-3,4-dimethyl-2-oxo-N-(2,4,6-trifluorobenzyl)-1,2,3,4-tetrahydroquinazoline-7-carboxamide], the EC50 in test [1] (setting [2]) was 1000 to 10000 nM; at hSTING(R232) (setting [3]) it was less than 1000 nM.

As to `C[C@H]1c2ccc(C(=O)NCc3c(F)cc(F)cc3F)cc2N(Cc2c(F)cc(F)cc2OCCCO)C(=O)N1C` [Example 275, (S)-1-(2,4-difluoro-6-(3-hydroxypropoxy)benzyl)-3,4-dimethyl-2-oxo-N-(2,4,6-trifluorobenzyl)-1,2,3,4-tetrahydroquinazoline-7-carboxamide], the concentration giving a half-maximal response (EC50) in test [1] (setting [2]) is more than 10000 nM; at hSTING(R232) (setting [3]), less than 1000 nM.

For the molecule `C[C@H]1c2ccc(C(=O)NCc3c(F)cc(F)cc3F)cc2N(Cc2cc(OCCO)cc(F)c2F)C(=O)N1C` [Example 282, (S)-1-(2,3-difluoro-5-(2-hydroxyethoxy)benzyl)-3,4-dimethyl-2-oxo-N-(2,4,6-trifluorobenzyl)-1,2,3,4-tetrahydroquinazoline-7-carboxamide], the EC50 is 1000 to 10000 nM in test [1] (setting [2]) and less than 1000 nM on hSTING(R232) (setting [3]).

Regarding `C[C@H]1c2ccc(C(=O)NCc3c(F)cc(F)cc3F)cc2N(Cc2c(F)cc(N)cc2F)C(=O)N1C` [Example 286, (S)-1-(4-amino-2,6-difluorobenzyl)-3,4-dimethyl-2-oxo-N-(2,4,6-trifluorobenzyl)-1,2,3,4-tetrahydroquinazoline-7-carboxamide], the EC50 (in test [1] (setting [2]); on hSTING(R232) (setting [3])) was less than 1000 nM throughout.

On to `CC(O)c1ccc(F)c(CN2C(=O)N(C)[C@@H](C)c3ccc(C(=O)NCc4c(F)cc(F)cc4F)cc32)c1F` (stereo partly drawn) [Example 289, (4S)-1-(2,6-difluoro-3-(1-hydroxyethyl)benzyl)-3,4-dimethyl-2-oxo-N-(2,4,6-trifluorobenzyl)-1,2,3,4-tetrahydroquinazoline-7-carboxamide], for which the values for the concentration for a half-maximal effect (EC50) (in test [1] (setting [2]); on hSTING(R232) (setting [3])) were 1000 to 10000 nM and less than 1000 nM, respectively.

For the molecule `C[C@H]1c2ccc(C(=O)NCc3c(F)cc(F)cc3F)cc2N(Cc2c(F)cc(OCCN3CCOCC3)cc2F)C(=O)N1C` [Example 291, (S)-1-(2,6-difluoro-4-(2-morpholinoethoxy)benzyl)-3,4-dimethyl-2-oxo-N-(2,4,6-trifluorobenzyl)-1,2,3,4-tetrahydroquinazoline-7-carboxamide], the EC50 (in test [1] (setting [2]); at hSTING(R232) (setting [3])) was less than 1000 nM throughout.

On to `C[C@H]1c2ccc(C(=O)NCc3c(F)cc(F)cc3F)cc2N(Cc2c(F)cc(OCCCC(=O)O)cc2F)C(=O)N1C` [Example 294, (S)-4-(4-((3,4-dimethyl-2-oxo-7-((2,4,6-trifluorobenzyl)carbamoyl)-3,4-dihydroquinazolin-1(2H)-yl)methyl)-3,5-difluorophenoxy)butanoic acid], for which the EC50 (in test [1] (setting [2]); on hSTING(R232) (setting [3])) was less than 1000 nM each time.

Take `C[C@H]1c2ccc(C(=O)NCc3c(F)cc(F)cc3F)cc2N(Cc2c(F)cncc2F)C(=O)N1C` [Example 295, (S)-1-((3,5-difluoropyridin-4-yl)methyl)-3,4-dimethyl-2-oxo-N-(2,4,6-trifluroobenzyl)-1,2,3,4-tetrahydroquinazoline-7-carboxamide]: the EC50 (in test [1] (setting [2]); at hSTING(R232) (setting [3])) was less than 1000 nM in each case.

Consider `C[C@H]1c2ccc(C(=O)NCc3c(F)cc(F)cc3F)cc2N(Cc2c(F)cc(OCCN)cc2Cl)C(=O)N1C` [Example 299, (S)-1-(4-(2-aminoethoxy)-2-chloro-6-fluorobenzyl)-3,4-dimethyl-2-oxo-N-(2,4,6-trifluorobenzyl)-1,2,3,4-tetrahydroquinazoline-7-carboxamide hydrochloride], for which the half-maximal effective concentration (EC50) in test [1] (setting [2]) is more than 10000 nM; on hSTING(R232) (setting [3]), less than 1000 nM.

On to `CNCCN(C)C(=O)Oc1ccc(F)c(CN2C(=O)N(C)[C@@H](C)c3ccc(C(=O)NCc4c(F)cc(F)cc4F)cc32)c1Cl` [Example 300, (S)-2-chloro-3-((3,4-dimethyl-2-oxo-7-((2,4,6-trifluorobenzyl)carbamoyl)-3,4-dihydroquinazolin-1(2H)-yl)methyl)-4-fluorophenyl-methyl(2-(methylamino)ethyl)carbamate hydrochloride], for which the concentration giving a half-maximal response (EC50) (in test [1]; at hSTING(R232) (R232 human activity (EC50 range))) was less than 1000 nM each time.

Values taken from patent US11571423B2, “Small molecule modulators of human sting” (Curadev Pharma Limited, priority 2017, dated 2023).
